Results as given in patent US20140079632A1, “ACTIVITY-BASED PROBES FOR THE UROKINASE P[…]” (UNIVERSITEIT ANTWERPEN, priority 2011, published 2014).

Tests used:
Type in all cases: biochemical
uPA [1] = target: T1, uPA (Homo sapiens, UniProt P00749); test: uPA inhibition: in vitro evaluation, IC50 with chromogenic substrate Biophen CS-61(44); conditions: 15 min preincubation at 37° C.; Tris buffer pH 8.8; 250 μM substrate
T1 construct: purchased Nodia
Method: Enzymatic activity was measured at 37° C. in a Spectramax 340 (Molecular Devices) microtiter plate reader using the chromogenic substrate Biophen CS-61(44) (LpyroGlu-Gly L-Arg-p-NA.HCl), with a Km of 80 μM.
(§1) The substrate and human enzyme were obtained from Nodia. The reaction was monitored at 405 nm, and the initial rate was determined between 0 and 0.25 absorbance units in 20 min. The reaction mixture contained 250 μM substrate and approximately 1 mU of enzyme in 145 μL of buffer in a final volume of 200 μL. A 50 mM Tris buffer, pH 8.8, was used. From each inhibitor concentration, 5 μL was added, obtaining a final concentration from 0 to 250 μM in a total volume of 0.2 mL. Activity measurements were routinely performed in duplicate. […] IC50 values were obtained by fitting the data with the four-parameter logistics equation using Grafit 5.
where s=slope factor, v=rate, I0=inhibitor concentration, and range=the fitted uninhibited value minus the background. The equation assumes the y falls with increasing x.
(§2) Inhibitor stock solutions were prepared in DMSO and stored at −20° C. Because the compounds described in this paper completely inactivate uPA following pseudofirst-order kinetics, the IC50 value is inversely correlated with the second-order rate constant of inactivation. For a simple pseudofirst-order inactivation process, the activity after incubation with inhibitor (vi) varies with the inhibitor concentration (i), as described in the following equation: […]

uPA [2] = target: T1, uPA; test: uPA inactivation kinetics from progress curves (kobs versus inhibitor concentration, kapp); conditions: asterisked: compound showed a two-step mechanism, kapp calculated as k2/K1; 250 μM substrate; 37° C.
Method: as §2
where vo is the activity in absence of inhibitor, k is the second-order rate constant of inactivation, and t is the time. The inactivation rate constant was determined from the time course of inhibition.
The inhibitor was mixed with the substrate (250 μM final concentration), and the buffer solution with the enzyme was added at the time zero. The inhibitor concentrations were chosen to obtain total inhibition of the enzyme within 20 min. The progress curves show the absorbance of p-nitroanilide produced as a function of time. Initially, no inhibitor is bound to the enzyme, and the tangent to the progress curve (dA/dt) is proportional to the concentration of the free enzyme. The concentration of free enzyme decreases over time due to the kinetics of inhibitor binding, as described above. Progress curves were recorded in pseudofirst-order conditions ([I]0>>[E]0) and with less than 10% conversion of the substrate during the entire time course. In these conditions, dA/dt decreases exponentially with time. The progress curves were fitted with the integrated rate equation to yield a value for kobs, a pseudofirst-order rate constant
At=v0[1−e^−k^obs^t]/kobs+A0
where At=absorbance at time t, A0=absorbance at time zero, and v0=uninhibited initial rate.
The apparent second-order rate constant (kapp) was calculated from the slope of the linear part of the plot of kobs versus the inhibitor concentration ([I]0). In case of competition between the inhibitor and the substrate, kapp is smaller than the “real” second order rate constant k discussed above because a certain fraction of the enzyme is present as an enzyme-substrate complex. kapp depends on the substrate concentration used in the experiment, as described by Lambeir et al.^40 For most final compounds, the kobs versus [I]0 plot was not linear, but could be fitted with a hyperbolic function: kobs=k2[I]0/(K1+[I]0) (two step mechanism). Where K1 is the dissociation constant of the reversible enzyme-inhibitor complex and k2 is the first-order rate constant associated with irreversible modification of the enzyme. A kapp could be calculated as k2/K1.

tPA (recombinant) = target: T2, tPA (recombinant) (Homo sapiens, UniProt P00750); test: Selectivity: tPA inhibition, substrate Biophen CS-05(88); conditions: 15 min preincubation; Tris buffer pH 8.3; 1.25 mM substrate
T2 construct: purchased Nodia
T2 sequence (P00750 36-562, species assumed): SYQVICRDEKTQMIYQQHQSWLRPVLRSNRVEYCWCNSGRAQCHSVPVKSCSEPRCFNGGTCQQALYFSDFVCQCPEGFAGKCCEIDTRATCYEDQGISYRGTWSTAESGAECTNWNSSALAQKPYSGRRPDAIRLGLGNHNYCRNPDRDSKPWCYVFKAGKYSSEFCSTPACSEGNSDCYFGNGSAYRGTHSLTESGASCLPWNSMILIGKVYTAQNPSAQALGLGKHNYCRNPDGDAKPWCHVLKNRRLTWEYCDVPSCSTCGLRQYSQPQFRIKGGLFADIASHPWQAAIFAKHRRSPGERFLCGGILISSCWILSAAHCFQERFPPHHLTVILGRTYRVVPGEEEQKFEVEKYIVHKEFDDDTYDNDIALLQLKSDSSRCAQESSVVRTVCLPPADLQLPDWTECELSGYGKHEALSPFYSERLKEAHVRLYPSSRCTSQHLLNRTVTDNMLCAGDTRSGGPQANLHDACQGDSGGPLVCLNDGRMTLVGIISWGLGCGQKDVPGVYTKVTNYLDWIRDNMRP
Method: as §1, with “The reaction mixture contained 250 μM substrate and approximately 1 mU of enzyme in 145 μL of buffer in a final volume of 200 μL.” left out
(§3) The IC50 values for plasmin (from human plasma, Sigma), tPA (recombinant, Nodia), thrombin (from human plasma, Sigma), and FXa were determined in the same way as for uPA.
(§4) For tPA and thrombin, Tris buffer, pH 8.3, was used, for FXa, Tris buffer, pH 8.3, for plasmin, Tris buffer, pH 7.4, was used.

[3] = target: T3, thrombin (from human plasma) (Homo sapiens, UniProt P00734); test: Selectivity: thrombin inhibition, substrate Biophen CS-21(66); conditions: 15 min preincubation; Tris buffer pH 8.3; 580 μM substrate
T3 construct: thrombin (from human plasma, Sigma); purchased Sigma; host or cells: human plasma
Method: as §1, with “The reaction mixture contained 250 μM substrate and approximately 1 mU of enzyme in 145 μL of buffer in a final volume of 200 μL.” left out
as §3, §4

[4] = target: T4, plasmin (from human plasma) (Homo sapiens, UniProt P00747); test: Selectivity: plasmin inhibition, substrate Biophen CS-21(66); conditions: 15 min preincubation; Tris buffer pH 7.4; 580 μM substrate
T4 construct: purchased Sigma; host or cells: human plasma
T4 sequence (P00747 581-810 limits assumed): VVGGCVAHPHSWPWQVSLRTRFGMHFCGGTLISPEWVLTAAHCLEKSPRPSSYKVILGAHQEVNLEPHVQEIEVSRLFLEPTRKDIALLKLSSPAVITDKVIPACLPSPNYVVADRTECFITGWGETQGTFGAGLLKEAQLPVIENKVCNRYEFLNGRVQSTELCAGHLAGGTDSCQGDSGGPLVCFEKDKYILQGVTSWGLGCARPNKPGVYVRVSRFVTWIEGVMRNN
T4 sequence (P00747 97-580 partner limits assumed): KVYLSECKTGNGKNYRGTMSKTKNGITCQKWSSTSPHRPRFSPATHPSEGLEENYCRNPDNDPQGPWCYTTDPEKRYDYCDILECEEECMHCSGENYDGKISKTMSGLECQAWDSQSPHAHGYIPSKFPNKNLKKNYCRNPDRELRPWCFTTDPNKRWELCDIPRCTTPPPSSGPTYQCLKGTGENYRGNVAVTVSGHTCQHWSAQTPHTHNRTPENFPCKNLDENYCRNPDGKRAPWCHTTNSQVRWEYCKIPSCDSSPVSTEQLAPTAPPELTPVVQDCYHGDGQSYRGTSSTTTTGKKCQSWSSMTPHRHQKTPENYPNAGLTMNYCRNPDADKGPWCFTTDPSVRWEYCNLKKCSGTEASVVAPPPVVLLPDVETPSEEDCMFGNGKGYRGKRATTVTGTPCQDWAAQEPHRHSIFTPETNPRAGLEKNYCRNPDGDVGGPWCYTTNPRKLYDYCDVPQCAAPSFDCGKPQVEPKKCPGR
Method: as §1, with “The reaction mixture contained 250 μM substrate and approximately 1 mU of enzyme in 145 μL of buffer in a final volume of 200 μL.” left out
as §3, §4

FXa = FXa (Homo sapiens, UniProt P00742); test: Selectivity: FXa inhibition, substrate Biophen CS-11(32); conditions: for FXa % (I) @ 250: at 250 (μM)
Sequence of FXa (P00742 235-488 limits assumed): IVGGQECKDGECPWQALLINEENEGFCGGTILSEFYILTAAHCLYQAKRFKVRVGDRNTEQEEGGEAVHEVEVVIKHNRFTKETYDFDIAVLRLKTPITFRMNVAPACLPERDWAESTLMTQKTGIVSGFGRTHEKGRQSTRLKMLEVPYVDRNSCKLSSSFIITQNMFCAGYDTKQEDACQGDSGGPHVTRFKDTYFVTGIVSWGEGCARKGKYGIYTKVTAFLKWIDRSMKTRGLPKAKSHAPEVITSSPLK
Sequence of FXa (P00742 41-179 partner limits assumed): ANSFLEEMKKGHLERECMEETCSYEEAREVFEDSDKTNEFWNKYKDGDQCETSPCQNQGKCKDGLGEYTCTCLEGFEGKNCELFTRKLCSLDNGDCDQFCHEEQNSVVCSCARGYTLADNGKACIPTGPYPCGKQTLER

For `N=C(N)Nc1ccc(CC(NC(=O)OCCCc2cn(CCOCCOCCOCCNC(=O)CCCC[C@@H]3SC[C@@H]4NC(=O)N[C@@H]43)nn2)P(=O)(Oc2ccccc2)Oc2ccccc2)cc1.O=C(O)C(F)(F)F` (stereo partly drawn) [Final compound 7, 3-(1-(13-oxo-17-((3aS,4S,6aR)-2-oxohexahydro-1H-thieno[3,4-d]imidazol-4-yl)-3,6,9-trioxa-12-azaheptadecyl)-1H-1,2,3-triazol-4-yl)propyl (1-(diphenoxyphosphoryl)-2-(4-guanidinophenyl)ethyl)carbamate 2,2,2-trifluoroacetate], the IC50 (uPA [1]) was 15.6 ± 1 nM, the “uPA: kapp” value (uPA [2]) was 86 × 10^2 ± 10 × 10^2 * M^−1 s^−1 and the IC50 (tPA (recombinant)) was 58 ± 6 µM. For the same compound, the IC50 [3] was 14.1 ± 0.3 µM, the IC50 [4] was 4.7 ± 0.1 µM and the “FXa % (I) @ 250” value (FXa) was 73% I @ 250 ^.
In the case of `Cl.N=C(N)Nc1ccc(CC(NC(=O)OCCCc2cn(CCOCCOCCOCCNC(=O)c3ccc(F)cc3)nn2)P(=O)(Oc2ccccc2)Oc2ccccc2)cc1` (stereo not drawn) [Final compound 8, 3-(1-(1-(4-fluorophenyl)-1-oxo-5,8,11-trioxa-2-azamidecan-13-yl)-1H-1,2,3-triazol-4-yl)propyl (1-(diphenoxyphosphoryl)-2-(4-guanidinophenyl)ethyl)carbamate hydrochloride], the IC50 (uPA [1]) is reported as 19 ± 2 nM, the “uPA: kapp” value (uPA [2]) is reported as 68 × 10^2 ± 25 × 10^2 * M^−1 s^−1 and the IC50 (tPA (recombinant)) is reported as 46 ± 5 µM. It also gave an IC50 [3] of 13.2 ± 0.6 µM, an IC50 [4] of 5.9 ± 0.8 µM and an IC50 (FXa; 15 min preincubation, Tris buffer pH 8.3, 522 μM substrate) of ~62 µM.
For `C#CCOCCOC(=O)NC(Cc1ccc(NC(=N)N)cc1)P(=O)(Oc1ccccc1)Oc1ccccc1.O=C(O)C(F)(F)F` (stereo not drawn) [Intermediate 55, 2-(prop-2-ynyloxy)ethyl 1-(diphenoxyphosphoryl)-2-(4-guanidinophenyl)ethyl carbamate 2,2,2-trifluoroacetate], the IC50 (uPA [1]) was 8.8 ± 0.8 nM, the “uPA: kapp” value (uPA [2]) was 19 × 10^3 ± 4 × 10^3 * M^−1 s^−1 and the IC50 (tPA (recombinant)) was 66 ± 13 µM. For the same compound, the IC50 [3] was 33 ± 4 µM, the IC50 [4] was 11 ± 1 µM and the “FXa % (I) @ 250” value (FXa) was 50% @ 250.
For `C#CCOCCOCCOC(=O)NC(Cc1ccc(NC(=N)N)cc1)P(=O)(Oc1ccccc1)Oc1ccccc1.O=C(O)C(F)(F)F` (stereo not drawn) [Intermediate 56, 2-(2-(prop-2-ynyloxy)ethoxy)ethyl 1-(diphenoxyphosphoryl)-2-(4-guanidinophenyl)ethylcarbamate 2,2,2-trifluoroacetate], the IC50 (uPA [1]) was 8.5 ± 1.2 nM, the “uPA: kapp” value (uPA [2]) was 12 × 10^3 ± 5 × 10^3 * M^−1 s^−1 and the IC50 (tPA (recombinant)) was 65 ± 9 µM. The IC50 [3] was 20 ± 3 µM, the IC50 [4] was 7.8 ± 0.6 µM and the “FXa % (I) @ 250” value (FXa) was 58% @ 250.
`C#CCOCCOCCOCCOC(=O)NC(Cc1ccc(NC(=N)N)cc1)P(=O)(Oc1ccccc1)Oc1ccccc1.O=C(O)C(F)(F)F` (stereo not drawn) [Intermediate 57, 2-(2-(2-(prop-2-ynyloxy)ethoxy)ethoxy)ethyl 1-(diphenoxyphosphoryl)-2-(4-guanidinophenyl)ethylcarbamate 2,2,2-trifluoroacetate] was tested, and the IC50 (uPA [1]) was 11 ± 1 nM, the “uPA: kapp” value (uPA [2]) was 11 × 10^3 ± 4 × 10^3 * M^−1 s^−1 and the IC50 (tPA (recombinant)) was 67 ± 7 µM. The IC50 [3] was 21 ± 5 µM, the IC50 [4] was 9 ± 2 µM and the “FXa % (I) @ 250” value (FXa) was 54% @ 250.
In the case of `C#CCCCOC(=O)NC(Cc1ccc(NC(=N)N)cc1)P(=O)(Oc1ccccc1)Oc1ccccc1.O=C(O)C(F)(F)F` (stereo not drawn) [Intermediate 58, pent-4-ynyl 1-(diphenoxyphosphoryl)-2-(4-guanidinophenyl)ethylcarbamate 2,2,2-trifluoroacetate], the IC50 (uPA [1]) is reported as 8 ± 0.5 nM, the “uPA: kapp” value (uPA [2]) is reported as 30 × 10^3 ± 9 × 10^3 * M^−1 s^−1 and the IC50 (tPA (recombinant)) is reported as 29 ± 2 µM. The IC50 [3] was 12.2 ± 0.3 µM, the IC50 [4] was 3.4 ± 0.4 µM and the “FXa % (I) @ 250” value (FXa) was 50% @ 250.
In the case of `O=C(O)C(F)(F)F.[N-]=[N+]=NCCCCCCOC(=O)NC(Cc1ccc(NC(=N)N)cc1)P(=O)(Oc1ccccc1)Oc1ccccc1` (stereo not drawn) [Intermediate 59, 6-azidohexyl 1-(diphenoxyphosphoryl)-2-(4-guanidinophenyl)ethylcarbamate 2,2,2-trifluoroacetate], the IC50 (uPA [1]) is reported as 9.6 ± 1.9 nM, the “uPA: kapp” value (uPA [2]) is reported as 14 × 10^3 ± 3 × 10^3 * M^−1 s^−1 and the IC50 (tPA (recombinant)) is reported as 16.7 ± 1.7 µM. The IC50 [3] was 2.4 ± 0.2 µM, the IC50 [4] was 3.6 ± 0.3 µM and the “FXa % (I) @ 250” value (FXa) was 61% @ 250.
For `O=C(O)C(F)(F)F.[N-]=[N+]=NCCOCCOC(=O)NC(Cc1ccc(NC(=N)N)cc1)P(=O)(Oc1ccccc1)Oc1ccccc1` (stereo not drawn) [Intermediate 60, 2-(2-azidoethoxy)ethyl 1-(diphenoxyphosphoryl)-2-(4-guanidinophenyl)ethyl carbamate 2,2,2-trifluoroacetate], the IC50 (uPA [1]) was 5.2 ± 1 nM, the “uPA: kapp” value (uPA [2]) was 19 × 10^3 ± 8 × 10^3 * M^−1 s^−1 and the IC50 (tPA (recombinant)) was 56 ± 53 µM. For the same compound, the IC50 [3] was 11.8 ± 0.6 µM, the IC50 [4] was 7.9 ± 0.3 µM and the “FXa % (I) @ 250” value (FXa) was 57% @ 250.
`O=C(O)C(F)(F)F.[N-]=[N+]=NCCOCCOCCOCCOC(=O)NC(Cc1ccc(NC(=N)N)cc1)P(=O)(Oc1ccccc1)Oc1ccccc1` (stereo not drawn) [Intermediate 62, 2-(2-(2-(2-azidoethoxy)ethoxy)ethoxy)ethyl 1-(diphenoxyphosphoryl)-2-(4-guanidinophenyl)ethylcarbamate 2,2,2-trifluoroacetate] was tested, and the IC50 (uPA [1]) was 15 ± 2 nM, the “uPA: kapp” value (uPA [2]) was 9 × 10^3 ± 4 × 10^3 * M^−1 s^−1 and the IC50 (tPA (recombinant)) was 70 ± 11 µM. For the same compound, the IC50 [3] was 29 ± 5 µM, the IC50 [4] was 9 ± 0.7 µM and the “FXa % (I) @ 250” value (FXa) was 48% @ 250.
For `C#CCCCOC(=O)NC(Cc1ccc(NC(=N)N)cc1)P(=O)(Oc1ccc(NC(C)=O)cc1)Oc1ccc(NC(C)=O)cc1` (stereo not drawn) [Intermediate 63, pent-4-ynyl 1-(bis(4-acetamidophenoxy)phosphoryl)-2-(4-guanidinophenyl)ethyl carbamate 2,2,2-trifluoroacetate], the IC50 (uPA [1]) was 3.5 ± 1.7 nM, the “uPA: kapp” value (uPA [2]) was 40 × 10^3 ± 8 × 10^3 * M^−1 s^−1 and the IC50 (tPA (recombinant)) was 24 ± 4 µM. The IC50 [3] was 2.1 ± 0.2 µM, the IC50 [4] was 1.4 ± 0.1 µM and the “FXa % (I) @ 250” value (FXa) was 70% @ 250.
